Reference: patent publication US20140243286A1, “BROMODOMAIN LIGANDS CAPABLE OF DIMERIZING IN AN AQUEOUS SOLUTION, AND METHODS OF USING SAME” (Coferon, Inc., priority 2011, published 2014)
Like-named read-outs stand apart in the source and are kept apart here.

How the values were obtained:
BRD2 = BRD2 (Homo sapiens, UniProt P25440); test: Fluorescence anisotropy (FA) binding assay, BRD2
Experimental: (§1) Fluorescence Anisotropy (FA) Binding Assays.
(§2) FA assays were performed as described in Chung et al., J. Med Chem., 2011 54(11): 3827-38 except that protein concentrations were 125 nM and plates were read on a Spectramax M5 plate reader.

BRD3 = BRD3 (Homo sapiens, UniProt Q15059); test: Fluorescence anisotropy (FA) binding assay, BRD3
Chain of BRD3 (Q15059 whole entry): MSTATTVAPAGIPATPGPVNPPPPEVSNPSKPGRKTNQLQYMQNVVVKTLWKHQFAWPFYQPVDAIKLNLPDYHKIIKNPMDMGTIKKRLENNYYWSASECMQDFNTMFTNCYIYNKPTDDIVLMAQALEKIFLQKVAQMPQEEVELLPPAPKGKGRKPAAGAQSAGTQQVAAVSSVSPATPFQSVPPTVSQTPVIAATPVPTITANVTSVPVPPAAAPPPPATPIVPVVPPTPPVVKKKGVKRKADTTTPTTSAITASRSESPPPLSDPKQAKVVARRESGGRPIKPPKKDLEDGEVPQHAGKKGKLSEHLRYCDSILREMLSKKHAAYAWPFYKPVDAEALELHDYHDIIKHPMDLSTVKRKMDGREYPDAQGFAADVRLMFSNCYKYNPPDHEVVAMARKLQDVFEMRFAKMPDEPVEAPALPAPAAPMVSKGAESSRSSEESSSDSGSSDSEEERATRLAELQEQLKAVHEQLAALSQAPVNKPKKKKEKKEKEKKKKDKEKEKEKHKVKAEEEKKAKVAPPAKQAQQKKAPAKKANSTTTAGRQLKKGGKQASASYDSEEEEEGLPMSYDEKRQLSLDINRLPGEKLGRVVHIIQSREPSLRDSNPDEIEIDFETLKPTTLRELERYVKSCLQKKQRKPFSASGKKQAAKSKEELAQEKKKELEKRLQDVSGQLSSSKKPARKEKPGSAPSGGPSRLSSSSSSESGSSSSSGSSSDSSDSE
Experimental: as §1, §2

BRD4 = BRD4 (Homo sapiens, UniProt O60885); test: Fluorescence anisotropy (FA) binding assay, BRD4
Experimental: as §1, §2

bromodomain = test: TR-FRET assay; assay type: binding; conditions: BRD-S monomers; based on monomer concentration; read-out: IC50 range (based on monomer concentration), Group (FRET assay)
Experimental: TR-FRET assays were performed as described in Chung et al, J. Med Chem., 2011 54(11): 3827-38 except that FRET was measured on a Spectramax M5 plate reader.

[1] = BRD2, protein 125 nM, read-out: IC50 range (FA assay) BRD2, BRD-N monomers
[2] = BRD3, protein 125 nM, read-out: IC50 range (FA assay) BRD3, BRD-N monomers
[3] = BRD4, protein 125 nM, read-out: IC50 range (FA assay) BRD4, BRD-N monomers

Chain of BRD2 (P25440 whole entry): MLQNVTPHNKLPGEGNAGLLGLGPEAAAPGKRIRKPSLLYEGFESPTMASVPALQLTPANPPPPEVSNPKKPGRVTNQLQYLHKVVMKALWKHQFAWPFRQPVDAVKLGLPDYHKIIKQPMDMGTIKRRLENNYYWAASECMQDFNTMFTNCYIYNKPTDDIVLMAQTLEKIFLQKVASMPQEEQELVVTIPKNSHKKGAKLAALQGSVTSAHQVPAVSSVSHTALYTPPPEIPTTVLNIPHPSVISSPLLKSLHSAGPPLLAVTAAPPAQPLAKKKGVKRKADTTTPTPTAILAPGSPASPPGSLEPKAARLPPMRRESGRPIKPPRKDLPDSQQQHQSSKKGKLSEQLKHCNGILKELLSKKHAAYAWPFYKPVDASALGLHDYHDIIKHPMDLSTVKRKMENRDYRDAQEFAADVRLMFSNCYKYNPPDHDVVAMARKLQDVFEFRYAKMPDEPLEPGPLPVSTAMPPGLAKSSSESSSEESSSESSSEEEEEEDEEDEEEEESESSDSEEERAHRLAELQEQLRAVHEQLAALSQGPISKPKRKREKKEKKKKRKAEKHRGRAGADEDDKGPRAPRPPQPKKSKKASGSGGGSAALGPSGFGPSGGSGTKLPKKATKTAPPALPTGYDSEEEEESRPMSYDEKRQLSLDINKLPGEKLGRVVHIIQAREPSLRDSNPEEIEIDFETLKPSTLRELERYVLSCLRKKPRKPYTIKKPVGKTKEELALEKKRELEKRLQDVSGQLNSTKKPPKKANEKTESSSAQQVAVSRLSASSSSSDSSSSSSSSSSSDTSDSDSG

| Compound | melting point | IC50 (BRD2) | IC50 (BRD3) | IC50 (BRD4) | IC50 (BRD2; [1]) | IC50 (BRD3; [2]) | IC50 (BRD4; [3]) | IC50 (bromodomain) |
| --- | --- | --- | --- | --- | --- | --- | --- | --- |
| CCNC(=O)C[C@@H]1N=C(c2ccc(Cl)cc2)c2cc(O)ccc2-n2c(C)nnc21 | 180 to 182 °C |  |  |  |  |  |  |  |
| COc1ccc2c(c1)C(c1ccc(Cl)cc1)=N[C@@H](CC(=O)NCCCCNC(=O)c1cccc(O)c1O)c1nnc(C)n1-2 [BRD-N-06, N-(4-(2-((4S)-6-(4-chlorophenyl)-8-methoxy-1-methyl-4H-benzo[f][1,2,4]triazolo[4,3-a][1,4]diazepin-4-yl)acetamido)butyl)-2,3-dihydroxybenzamide] |  | 50 to 1000 nM | 1000 to 30000 nM | 50 to 1000 nM |  |  |  |  |
| COc1ccc2c(c1)C(c1ccc(Cl)cc1)=N[C@@H](CC(=O)NCCCCCNC(=O)c1ccc(O)c(O)c1)c1nnc(C)n1-2 [BRD-N-07, N-(5-(2-((4S)-6-(4-chlorophenyl)-8-methoxy-1-methyl-4H-benzo[f][1,2,4]triazolo[4,3-a][1,4]diazepin-4-yl)acetamido)pentyl)-3,4-dihydroxybenzamide] |  |  |  |  | 50 to 1000 nM | 50 to 1000 nM | 50 to 1000 nM |  |
| COc1ccc2c(c1)C(c1ccc(Cl)cc1)=N[C@@H](CC(=O)NCCCCCNC(=O)c1cccc(O)c1O)c1nnc(C)n1-2 [BRD-N-08, N-(5-(2-((4S)-6-(4-chlorophenyl)-8-methoxy-1-methyl-4H-benzo[f][1,2,4]triazolo[4,3-a][1,4]diazepin-4-yl)acetamido)pentyl)-2,3-dihydroxybenzamide] |  |  |  |  | 50 to 1000 nM | 50 to 1000 nM | 50 to 1000 nM |  |
| COc1ccc2c(c1)C(c1ccc(Cl)cc1)=N[C@@H](CC(=O)NCc1ccc(O)c(O)c1)c1nnc(C)n1-2 [BRD-N-09, (S)-2-(6-(4-chlorophenyl)-8-methoxy-1-methyl-4H-benzo[f][1,2,4]triazolo[4,3-a][1,4]diazepin-4-yl)-N-(3,4-dihydroxybenzyl)acetamide] |  |  |  |  | 50 to 1000 nM | 50 to 1000 nM | 50 to 1000 nM |  |
| COc1ccc2c(c1)C(c1ccc(Cl)cc1)=N[C@@H](CC(=O)NCCc1ccc(O)c(O)c1)c1nnc(C)n1-2 [BRD-N-10, (S)-2-(6-(4-chlorophenyl)-8-methoxy-1-methyl-4H-benzo[f][1,2,4]triazolo[4,3-a][1,4]diazepin-4-yl)-N-(3,4-dihydroxyphenethyl)acetamide] |  |  |  |  | 50 to 1000 nM | 50 to 1000 nM | 50 to 1000 nM |  |
| COc1ccc2c(c1)C(c1ccc(Cl)cc1)=N[C@@H](CC(=O)NCc1cccc(O)c1O)c1nnc(C)n1-2 [BRD-N-11, (S)-2-(6-(4-chlorophenyl)-8-methoxy-1-methyl-4H-benzo[f][1,2,4]triazolo[4,3-a][1,4]diazepin-4-yl)-N-(2,3-dihydroxybenzyl)acetamide] |  |  |  |  | 50 to 1000 nM | 50 to 1000 nM | 50 to 1000 nM |  |
| COc1ccc2c(c1)C(c1ccc(Cl)cc1)=N[C@@H](CC(=O)NCCc1cccc(O)c1O)c1nnc(C)n1-2 [BRD-N-12, (S)-2-(6-(4-chlorophenyl)-8-methoxy-1-methyl-4H-benzo[f][1,2,4]triazolo[4,3-a][1,4]diazepin-4-yl)-N-(2,3-dihydroxyphenethyl)acetamide] |  |  |  |  | 50 to 1000 nM | 50 to 1000 nM | 50 to 1000 nM |  |
| CCNC(=O)C[C@@H]1N=C(c2ccc(Cl)cc2)c2cc(OCC(=O)Nc3ccc(O)c(O)c3)ccc2-n2c(C)nnc21 [BRD-N-16, (S)-2-((6-(4-chlorophenyl)-4-(2-(ethylamino)-2-oxoethyl)-1-methyl-4H-benzo[f][1,2,4]triazolo[4,3-a][1,4]diazepin-8-yl)oxy)-N-(3,4-dihydroxyphenyl)acetamide] |  |  |  |  | 50 to 1000 nM | 50 to 1000 nM | 50 to 1000 nM |  |
| CCNC(=O)C[C@@H]1N=C(c2ccc(Cl)cc2)c2cc(OCC(=O)Nc3cccc(O)c3O)ccc2-n2c(C)nnc21 [BRD-N-17, (S)-2-((6-(4-chlorophenyl)-4-(2-(ethylamino)-2-oxoethyl)-1-methyl-4H-benzo[f][1,2,4]triazolo[4,3-a][1,4]diazepin-8-yl)oxy)-N-(2,3-dihydroxyphenyl)acetamide] |  |  |  |  | 50 to 1000 nM | 1000 to 30000 nM | 50 to 1000 nM |  |
| CCNC(=O)C[C@@H]1N=C(c2ccc(Cl)cc2)c2cc(OCCCC(=O)Nc3ccc(O)c(O)c3)ccc2-n2c(C)nnc21 [BRD-N-20, (S)-4-((6-(4-chlorophenyl)-4-(2-(ethylamino)-2-oxoethyl)-1-methyl-4H-benzo[f][1,2,4]triazolo[4,3-a][1,4]diazepin-8-yl)oxy)-N-(3,4-dihydroxyphenyl)butanamide] |  |  |  |  | 50 to 1000 nM | 50 to 1000 nM | 50 to 1000 nM |  |
| CCNC(=O)C[C@@H]1N=C(c2ccc(Cl)cc2)c2cc(OCCCC(=O)Nc3cccc(O)c3O)ccc2-n2c(C)nnc21 [BRD-N-21, (S)-4-((6-(4-chlorophenyl)-4-(2-(ethylamino)-2-oxoethyl)-1-methyl-4H-benzo[f][1,2,4]triazolo[4,3-a][1,4]diazepin-8-yl)oxy)-N-(2,3-dihydroxyphenyl)butanamide] |  |  |  |  | 1000 to 30000 nM | 50 to 1000 nM | 50 to 1000 nM |  |
| CCNC(=O)C[C@@H]1N=C(c2ccc(Cl)cc2)c2cc(OCCCCC(=O)Nc3ccc(O)c(O)c3)ccc2-n2c(C)nnc21 [BRD-N-22, (S)-5-((6-(4-chlorophenyl)-4-(2-(ethylamino)-2-oxoethyl)-1-methyl-4H-benzo[f][1,2,4]triazolo[4,3-a][1,4]diazepin-8-yl)oxy)-N-(3,4-dihydroxyphenyl)pentanamide] |  |  |  |  | 50 to 1000 nM | 50 to 1000 nM | 50 to 1000 nM |  |
| CCNC(=O)C[C@@H]1N=C(c2ccc(Cl)cc2)c2cc(OCCCCC(=O)Nc3cccc(O)c3O)ccc2-n2c(C)nnc21 [BRD-N-23, (S)-5-((6-(4-chlorophenyl)-4-(2-(ethylamino)-2-oxoethyl)-1-methyl-4H-benzo[f][1,2,4]triazolo[4,3-a][1,4]diazepin-8-yl)oxy)-N-(2,3-dihydroxyphenyl)pentanamide] |  | 50 to 1000 nM | 50 to 1000 nM | 50 to 1000 nM |  |  |  |  |
| CCNC(=O)C[C@@H]1N=C(c2ccc(Cl)cc2)c2cc(OCCNC(=O)c3ccc(O)c(O)c3)ccc2-n2c(C)nnc21 [BRD-N-24] |  |  |  |  | 50 to 1000 nM | 50 to 1000 nM | 1000 to 30000 nM |  |
| CCNC(=O)C[C@@H]1N=C(c2ccc(Cl)cc2)c2cc(OCCNC(=O)c3cccc(O)c3O)ccc2-n2c(C)nnc21 [BRD-N-25, (S)—N-(2-((6-(4-chlorophenyl)-4-(2-(ethylamino)-2-oxoethyl)-1-methyl-4H-benzo[f][1,2,4]triazolo[4,3-a][1,4]diazepin-8-yl)oxy)ethyl)-2,3-dihydroxybenzamide] |  |  |  |  | 1000 to 30000 nM | 50 to 1000 nM | 50 to 1000 nM |  |
| CCNC(=O)C[C@@H]1N=C(c2ccc(Cl)cc2)c2cc(OCCCNC(=O)c3ccc(O)c(O)c3)ccc2-n2c(C)nnc21 [BRD-N-26, (S)—N-(3-((6-(4-chlorophenyl)-4-(2-(ethylamino)-2-oxoethyl)-1-methyl-4H-benzo[f][1,2,4]triazolo[4,3-a][1,4]diazepin-8-yl)oxy)propyl)-3,4-dihydroxybenzaamide] |  |  |  |  | 1000 to 30000 nM | 1000 to 30000 nM | 1000 to 30000 nM |  |
| CCNC(=O)C[C@@H]1N=C(c2ccc(Cl)cc2)c2cc(OCCCNC(=O)c3cccc(O)c3O)ccc2-n2c(C)nnc21 [BRD-N-27, (S)—N-(3-((6-(4-chlorophenyl)-4-(2-(ethylamino)-2-oxoethyl)-1-methyl-4H-benzo[f][1,2,4]triazolo[4,3-a][1,4]diazepin-8-yl)oxy)propyl)-2,3-dihydroxybenzamide] |  |  |  |  | 1000 to 30000 nM | 50 to 1000 nM | 50 to 1000 nM |  |
| CCNC(=O)C[C@@H]1N=C(c2ccc(Cl)cc2)c2cc(OCCCCNC(=O)c3ccc(O)c(O)c3)ccc2-n2c(C)nnc21 [BRD-N-28, (S)—N-(4-((6-(4-chlorophenyl)-4-(2-(ethylamino)-2-oxoethyl)-1-methyl-4H-benzo[f][1,2,4]triazolo[4,3-a][1,4]diazepin-8-yl)oxy)butyl)-3,4-dihydroxybenzamide] |  |  |  |  | 1000 to 30000 nM | 50 to 1000 nM | 1000 to 30000 nM |  |
| CCNC(=O)C[C@@H]1N=C(c2ccc(Cl)cc2)c2cc(OCCCCNC(=O)c3cccc(O)c3O)ccc2-n2c(C)nnc21 [BRD-N-29, (S)—N-(4-((6-(4-chlorophenyl)-4-(2-(ethylamino)-2-oxoethyl)-1-methyl-4H-benzo[f][1,2,4]triazolo[4,3-a][1,4]diazepin-8-yl)oxy)butyl)-2,3-dihydroxybenzamide] |  |  |  |  | 50 to 1000 nM | 1000 to 30000 nM | 1000 to 30000 nM |  |
| COc1ccc2c(c1)C(c1ccc(Cl)cc1)=N[C@@H](CC(=O)NCCNC(=O)Cc1ccc(O)c(O)c1)c1nnc(C)n1-2 [BRD-N-30, 2-((4S)-6-(4-chlorophenyl)-8-methoxy-1-methyl-4H-benzo[f][1,2,4]triazolo[4,3-a][1,4]diazepin-4-yl)-N-(2-(2-(3,4-dihydroxyphenyl)acetamido)ethyl)acetamide] |  |  |  |  | 50 to 1000 nM | 50 to 1000 nM | 50 to 1000 nM |  |
| COc1ccc2c(c1)C(c1ccc(Cl)cc1)=N[C@@H](CC(=O)NCCOc1cccc([Si](C)(C)O)c1)c1nnc(C)n1-2 [BRD-S-10, (S)-2-(6-(4-chlorophenyl)-8-methoxy-1-methyl-4H-benzo[f][1,2,4]triazolo[4,3-a][1,4]diazepin-4-yl)-N-(2-(3-(hydroxydimethylsilyl)phenoxy)ethyl)acetamide] |  |  |  |  |  |  |  | 100 to 300 nM |
